The text below walks through data of doi:10.1101/2021.10.07.463234v2 (biorxiv, 2021).

Structures can show the parent of a compound that is named as a salt. Numbered stars: 1 amine (or outer) side, 2 acyl side, 3 side chain; on linkers, the order of the positions; unused ones are H or OH. Bridge positions count the residues as written; N and C are the ends. Square brackets hold non-standard residues; d marks the D form. Peptide text beside a SMILES is read from it. * marks the point of attachment. hTyr(3S-OH,4S-OH,3'-OSO3H) = N[C@H](C(=O)O)[C@H](O)[C@@H](O)c1ccc(O)c(OS(=O)(=O)O)c1; Orn(4R-OH,5R-OH) = O=C([C@H](C[C@@H](O)[C@@H](O)N[*:3])N[*:1])[*:2]; Pro(3S-OH,4S-Me) = C[C@H]1CN[C@H](C(=O)O)[C@H]1O; X1 = CCCCCOc1ccc(-c2cc(-c3ccc(C(=O)*)cc3)no2)cc1; Gln(3R-OH) = NC(=O)C[C@@H](O)[C@H](N)C(=O)O; Hyp = O=C(O)[C@@H]1C[C@@H](O)CN1

The target of this assay is SARS-CoV-2 Mac1 (Severe acute respiratory syndrome coronavirus 2, UniProt P0DTD1). The assay can be described thus: biochemical. To be noted: for inhibition at 100 µM: read-out: %inhibition; for %inhibition: 100 µM, inhibitor.

Usually inhibition stands for the share of the control response that was lost under treatment. `CCCCCOc1ccc(-c2cc(-c3ccc(C(=O)N[C@H]4C[C@@H](O)[C@@H](O)NC(=O)[C@@H]5[C@@H](O)[C@@H](C)CN5C(=O)[C@H]([C@H](O)CC(N)=O)NC(=O)[C@H]([C@H](O)[C@@H](O)c5ccc(O)c(OS(=O)(=O)O)c5)NC(=O)[C@@H]5C[C@@H](O)CN5C(=O)[C@H]([C@@H](C)O)NC4=O)cc3)no2)cc1` [Micafungin Sodium] (X1-[Orn(4R-OH,5R-OH)]T[Hyp][hTyr(3S-OH,4S-OH,3'-OSO3H)][Gln(3R-OH)][Pro(3S-OH,4S-Me)]; lactam 1-C): the inhibition at 100 µM is 0%.
On the same count and under the same terms, under `CCC(=O)O[C@@H]1CC(=O)O[C@H](C)C/C=C/C=C/[C@H](O)[C@H](C)C[C@H](CC=O)[C@H](O[C@@H]2O[C@H](C)[C@@H](O[C@H]3C[C@@](C)(O)[C@@H](OC(=O)CC)[C@H](C)O3)[C@H](N(C)C)[C@H]2O)[C@H]1OC` [Midecamycin] stands 5.18%; under `CC#C[C@]1(O)CC[C@H]2[C@@H]3CCC4=CC(=O)CCC4=C3[C@@H](c3ccc(N(C)C)cc3)C[C@@]21C` [Mifepristone], 8.31%.
Same read-out and setting: under `OCCN1C[C@H](O)[C@@H](O)[C@H](O)[C@H]1CO` [Miglitol] stands 11%; under `Cc1[nH]c(=O)c(C#N)cc1-c1ccncc1` [Milrinone], 0%.
On the same count and under the same terms, to `CCCCCCCCCCCCCCCCOP(=O)([O-])OCC[N+](C)(C)C` [Miltefosine] belongs 0%; to `Cc1cc(-c2ccccc2)nnc1NCCN1CCOCC1` [Minaprine dihydrochloride], 2.13%; to `CN(C)c1ccc(O)c2c1C[C@H]1C[C@H]3[C@H](N(C)C)C(O)=C(C(N)=O)C(=O)[C@@]3(O)C(O)=C1C2=O` [Minocycline HCl], 0%.
As for `Nc1cc(N2CCCCC2)nc(N)[n+]1OS(=O)(=O)[O-]` [Minoxidil sulphate], the inhibition at 100 µM is 19%.
The same measure, in the same setting: to `Nc1nc(CC(=O)Nc2ccc(CCNC[C@H](O)c3ccccc3)cc2)cs1` [Mirabegron] belongs 0%; to `CN1CCN2c3ncccc3Cc3ccccc3C2C1` (stereo not shown) [Mirtazapine], 7.99%.
On the same count and under the same terms, under `CO[C@@]12[C@H](COC(N)=O)C3=C(C(=O)C(C)=C(N)C3=O)N1C[C@@H]1N[C@@H]12` [Mitomycin C] stands 10.1%; under `Clc1ccc(C(c2ccccc2Cl)C(Cl)Cl)cc1` (stereo not shown) [Mitotane], 46.2%; under `O=C1c2c(O)ccc(O)c2C(=O)c2c(NCCNCCO)ccc(NCCNCCO)c21` [Mitoxantrone 2HCl], 74.8%.
The same measure, in the same setting: to `NC(=O)c1ncn([C@@H]2O[C@H](CO)[C@@H](O)[C@H]2O)c1O` [Mizoribine] belongs 0%.
Take `Nc1ccccc1NC(=O)c1ccc(CNc2nccc(-c3cccnc3)n2)cc1` [Mocetinostat (MGCD0103)]: the inhibition at 100 µM is 7.18%.
The same measure, in the same setting: to `O=C(NCCN1CCOCC1)c1ccc(Cl)cc1` [Moclobemide (Ro 111163)] belongs 0%; to `CCOC(=O)[C@H](CCc1ccccc1)N[C@@H](C)C(=O)N1Cc2cc(OC)c(OC)cc2C[C@H]1C(=O)O` [Moexipril HCl], 0%; to `CCOC(=O)CC(=O)N1CCSC1COc1ccccc1OC` (stereo not shown) [Moguisteine], 13%.
For `O=c1c(-n2ccnn2)c[nH]n1-c1cc(N2CCOCC2)ncn1` [Molidustat (BAY 85-3934)], the inhibition at 100 µM stood at 19.3%.
On the same count and under the same terms, under `CCc1c(C)[nH]c2c1C(=O)C(CN1CCOCC1)CC2` (stereo not shown) [Molindone hydrochloride] stands 0%.
Same read-out and setting: under `CCOC(=O)[N-]c1c[n+](N2CCOCC2)no1` [Molsidomine] stands 0%; under `C[C@@H]1C[C@H]2[C@@H]3CCC4=CC(=O)C=C[C@]4(C)[C@@]3(Cl)[C@@H](O)C[C@]2(C)[C@@]1(OC(=O)c1ccco1)C(=O)CCl` [Mometasone furoate], 7.49%; under `Oc1ccc(OCc2ccccc2)cc1` [Monobenzone], 0%.
The same measure, in the same setting: under `N=C(N)NC(=N)N1CCOCC1` [Moroxydine HCl] stands 0.197%; under `CCOc1cc(N)c(Cl)cc1C(=O)NCC1CN(Cc2ccc(F)cc2)CCO1` (stereo not shown) [Mosapride], 0%; under `CCCN(CCC)C(=O)C1=Cc2ccc(-c3ccc(C(=O)N4CCCC4)cc3)cc2N=C(N)C1` [Motolimod (VTX-2337)], 0%.
Take `CO/N=C1\C[C@]2(C[C@@H]3C[C@@H](C/C=C(\C)C[C@@H](C)/C=C/C=C4\CO[C@@H]5[C@H](O)C(C)=C[C@@H](C(=O)O3)[C@]45O)O2)O[C@H](/C(C)=C/C(C)C)[C@H]1C` [Moxidectin]: the inhibition at 100 µM turned out to be 7.63%.
Broadly, the %inhibition is the change of the read-out against control, counted positive when it falls. High values mean strong suppression, low ones little suppression. For `COc1c(N2C[C@@H]3CCCN[C@@H]3C2)c(F)cc2c(=O)c(C(=O)O)cn(C3CC3)c12` [Moxifloxacin HCl], the “%inhibition” value is listed as 0%.
Turning to `COc1c(N2C[C@@H]3CCCN[C@@H]3C2)c(F)cc2c(=O)c(C(=O)O)cn(C3CC3)c12` [Moxifloxacin], the “%inhibition” value came out at 6.66%.
For the molecule `COc1nc(C)nc(Cl)c1NC1=NCCN1` [Moxonidine], the inhibition at 100 µM came out at 0%.
On the same count and under the same terms, under `Cc1ccccc1C(=O)Nc1ccc(C(=O)N2CCCC(N(C)C)c3ccccc32)cc1` (stereo not shown) [Mozavaptan] stands 21.9%; under `FC(F)(F)c1ccc(/C=C/c2nc(COc3ccc(CCCCn4ccnn4)cc3)co2)cc1` [Mubritinib (TAK 165)], 0%.
Regarding `C/C(=C\C(=O)OCCCCCCCCC(=O)O)C[C@@H]1OC[C@H](C[C@@H]2O[C@H]2[C@@H](C)[C@H](C)O)[C@@H](O)[C@H]1O` [Mupirocin calcium], the “%inhibition” value is reported as 3.887%.
Turning to `C/C(=C\C(=O)OCCCCCCCCC(=O)O)C[C@@H]1OC[C@H](C[C@@H]2O[C@H]2[C@@H](C)[C@H](C)O)[C@@H](O)[C@H]1O` [Mupirocin], the “%inhibition” value turned out to be 0%.
With `COc1c(C)c2c(c(O)c1C/C=C(\C)CCC(=O)OCCN1CCOCC1)C(=O)OC2` [Mycophenolate Mofetil], the inhibition at 100 µM was 0%.
Still for that read-out and setting: to `COc1c(C)c2c(c(O)c1C/C=C(\C)CCC(=O)O)C(=O)OC2` [Mycophenolic acid] belongs 0%.
Take `COc1ccc2[nH]c([S@@+]([O-])Cc3ncc(C)c(OC)c3C)nc2c1` [NEXIUM (esomeprazole magnesium)]: the “%inhibition” value is recorded as 21.09%.
As to `COc1ccc2cc(CCC(C)=O)ccc2c1` [Nabumetone], the inhibition at 100 µM was 0%.
Same read-out and setting: under `CC1CCc2c(N3CCC(O)CC3)c(F)cc3c(=O)c(C(=O)O)cn1c23` (stereo not shown) [Nadifloxacin] stands 0%; under `N=C(N)Nc1ccc(C(=O)Oc2ccc3cc(C(=N)N)ccc3c2)cc1` [Nafamostat Mesylate], 0%.
As to `CCOc1ccc2ccccc2c1C(=O)N[C@@H]1C(=O)N2[C@@H]1SC(C)(C)[C@@H]2C(=O)O` [Nafcillin Sodium], the inhibition at 100 µM stood at 0%.
In the case of `COc1ccccc1N1CCN(CC(O)COc2cccc3ccccc23)CC1` (stereo not shown) [Naftopidil DiHCl], the “%inhibition” value is recorded as 0%.
The same measure, in the same setting: to `COc1ccccc1N1CCN(CC(O)COc2cccc3ccccc23)CC1` (stereo not shown) [Naftopidil] belongs 1.252%.
As to `CCn1cc(C(=O)O)c(=O)c2ccc(C)nc21` [Nalidixic acid], the inhibition at 100 µM was 0%.
Take `C=C1CC[C@@]2(O)[C@H]3Cc4ccc(O)c5c4[C@@]2(CCN3CC2CC2)[C@H]1O5` [Nalmefene HCl]: the inhibition at 100 µM turned out to be 0%.
The same measure, in the same setting: under `O=C1CC[C@@]2(O)[C@H]3Cc4ccc(O)c5c4[C@@]2(CCN3CC2CC2)[C@H]1O5` [Naltrexone HCl] stands 0%; under `CC(=O)c1cc2c(o1)C(=O)c1ccccc1C2=O` [Napabucasin], 6.24%; under `c1ccc2c(CC3=NCCN3)cccc2c1` [Naphazoline HCl], 8.42%.
Still for that read-out and setting: under `COc1ccc2cc([C@H](C)C(=O)O)ccc2c1` [Naproxen Sodium] stands 0%; under `CNS(=O)(=O)CCc1ccc2[nH]cc(C3CCN(C)CC3)c2c1` [Naratriptan HCl], 0%.
Same read-out and setting: to `C[C@@H]1C/C=C/C=C/C=C/C=C/[C@H](O[C@@H]2O[C@H](C)[C@@H](O)[C@H](N)[C@@H]2O)C[C@@H]2O[C@](O)(C[C@@H](O)C[C@H]3O[C@@H]3/C=C/C(=O)O1)C[C@H](O)[C@H]2C(=O)O` [Natamycin] belongs 0%; to `CC(C)[C@H]1CC[C@H](C(=O)N[C@H](Cc2ccccc2)C(=O)O)CC1` [Nateglinide], 0%; to `O[C@H](CNC[C@@H](O)[C@H]1CCc2cc(F)ccc2O1)[C@@H]1CCc2cc(F)ccc2O1` [Nebivolol HCl], 0%.
As to `CCc1nn(CCCN2CCN(c3cccc(Cl)c3)CC2)c(=O)n1CCOc1ccccc1` [Nefazodone hydrochloride], the inhibition at 100 µM was determined as 14%.
On the same count and under the same terms, under `Cc1cccc(C)c1NC(=O)CN1CCCC1=O` [Nefiracetam] stands 8.32%.
For the molecule `CN1CCOC(c2ccccc2)c2ccccc2C1` (stereo not shown) [Nefopam HCl], the inhibition at 100 µM was found to be 0%.
Still for that read-out and setting: to `COc1nc(N)nc2c1ncn2[C@@H]1O[C@H](CO)[C@@H](O)[C@@H]1O` [Nelarabine] belongs 50.5%; to `Cc1c(O)cccc1C(=O)N[C@@H](CSc1ccccc1)[C@H](O)CN1C[C@H]2CCCC[C@H]2C[C@H]1C(=O)NC(C)(C)C` [Nelfinavir Mesylate], 0.155%.
Still for that read-out and setting: to `NC[C@@H]1O[C@H](O[C@H]2[C@@H](O)[C@H](O[C@@H]3[C@@H](O)[C@H](N)C[C@H](N)[C@H]3O[C@H]3O[C@H](CN)[C@@H](O)[C@H](O)[C@H]3N)O[C@@H]2CO)[C@H](N)[C@@H](O)[C@@H]1O` [Neomycin sulfate] belongs 0%; to `CN(C)C(=O)Oc1cccc([N+](C)(C)C)c1` [Neostigmine Bromide], 0%; to `NC(=O)Cc1cccc(C(=O)c2ccccc2)c1N` [Nepafenac], 0%.
The same measure, in the same setting: to `CCOc1cc2ncc(C#N)c(Nc3ccc(OCc4ccccn4)c(Cl)c3)c2cc1NC(=O)/C=C/CN(C)C` [Neratinib (HKI-272)] belongs 4.82%.
With `CCCCCOc1ccccc1/C(=C\SC)n1ccnc1` [Neticonazole Hydrochloride], the inhibition at 100 µM came out at 0%.
